The text below walks through data of ChEMBL document CHEMBL1201862, “PubChem BioAssay data set” (2004).

Among the test systems are RXF 393; HL-60; SK-MEL-28; IGROV-1; SF-268; A549; SNB-78; DLD-1; M14; HT-29; NCI-H522; OVCAR-5; NCI-H460; SR; DMS-273; ACHN.
Common to all, as to assay: NCI-60 cell line screen, 48 h

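Dose response: 5 concentrations. Exposure: 48 h. Format: 96-well plates. Endpoint: linear interpolation; highest concentration if not reached. At the GI50, growth is halved.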 Active and inactive are the calls of the source. Rule as the data show it: active = GI50 up to about 1.1 µM and inactive = higher.

Turning to `COC(=O)C1=C(C)C(=O)C2(CCCCCC2C(=O)OC)C1` (centres undefined), the GI50 in the test on RXF 393, in the test on HL-60, with SK-MEL-28, in the test on IGROV-1, in the test on SF-268 and with A549 was > 100 µM (inactive) each time. For the same compound, the GI50 is > 100 µM (inactive) with SNB-78; > 100 µM (inactive) in the test on DLD-1; > 100 µM (inactive) in the test on M14; > 100 µM (inactive) in the test on HT-29; 65.2 µM (inactive) in the test with NCI-H522; > 100 µM (inactive) with OVCAR-5. Also, the GI50 in the test with NCI-H460, in the test with SR, in the test with DMS-273 and in the test on ACHN was > 100 µM (inactive) throughout.

Turning to `O/N=C/c1ccc(O)c(O)c1`, the GI50 was > 100 µM (inactive) in the test with RXF 393; 12.8 µM (inactive) with HL-60; > 100 µM (inactive) in the test on SK-MEL-28; 65 µM (inactive) in the test with IGROV-1; > 100 µM (inactive) in the test with SF-268; > 100 µM (inactive) with A549. Besides, the GI50 is > 100 µM (inactive) in the test on SNB-78; > 100 µM (inactive) in the test on DLD-1; 97.5 µM (inactive) in the test with M14; > 100 µM (inactive) in the test with HT-29; 15.2 µM (inactive) in the test with NCI-H522; > 100 µM (inactive) in the test with OVCAR-5. The GI50 in the test with NCI-H460 was 77.4 µM (inactive); with SR it was 37.2 µM (inactive); in the test with DMS-273, 62.5 µM (inactive); in the test on ACHN it was 39.9 µM (inactive).

Turning to `Cn1cc2ccccc2c1-c1nc(F)nc(Oc2ccc3c(c2)CC[C@@H]2C3CC[C@@]3(C)C2CC[C@@H]3O)n1` (some centres undefined), the GI50 is 3.08 µM (inactive) with RXF 393; 3.81 µM (inactive) in the test with HL-60; 10.4 µM (inactive) with SK-MEL-28; 6.78 µM (inactive) with IGROV-1; 9.53 µM (inactive) in the test with SF-268; 24.8 µM (inactive) with A549. The GI50 with SNB-78 was 22.3 µM (inactive); in the test with DLD-1, 7.16 µM (inactive); with M14, 8.71 µM (inactive); with HT-29, 18.7 µM (inactive); in the test with NCI-H522, 3.4 µM (inactive); in the test on OVCAR-5 it was 18.6 µM (inactive). The GI50 is 18.6 µM (inactive) with NCI-H460, 3.36 µM (inactive) in the test on SR, 11.6 µM (inactive) in the test on DMS-273 and 17.7 µM (inactive) in the test on ACHN.

In the case of `COC(=O)[C@@]12OC[C@]34C([C@@H](O)C1O)[C@@]1(C)CC(=O)C(O)=C(C)C1C[C@H]3OC(=O)[C@H](OC(=O)CC(C)C(F)(F)F)[C@H]42` (some centres undefined), the GI50 in the test with RXF 393 is 0.0912 µM (active); in the test on HL-60 it was 0.00375 µM (active); with SK-MEL-28 it was 0.0121 µM (active); in the test on IGROV-1 it was 0.0168 µM (active); in the test with SF-268, 0.0869 µM (active); in the test with A549, 0.0265 µM (active). Moreover, the GI50 with SNB-78 was 0.206 µM (active); in the test with DLD-1, 0.0877 µM (active); in the test on M14, 0.0347 µM (active); in the test with HT-29 it was 0.0133 µM (active); with NCI-H522, 0.00891 µM (active); with OVCAR-5, 0.146 µM (active). The GI50 in the test on NCI-H460 is 0.00542 µM (active); in the test with SR, 0.00429 µM (active); in the test with DMS-273 it was 0.00693 µM (active); with ACHN, 0.0231 µM (active).
